# Reference: patent US20230174649A1, “PHARMACEUTICAL COMPOSITIONS CONTAINING ANTI-CD47 ANTIBODIES” (I-MAB BIOPHARMA US LIMITED, priority 2020, published 2023)
# Values joined by “and” are separate entries in the source; they are usually repeats but may differ in a detail not shown here. Equal values may be shown once.
# Assays:
# Assay type in all cases: cell-based, Human
# Toledo Cells = assay: FACS-based phagocytosis assay, macrophages cocultured with Toledo cells
# Procedure: FACS-based phagocytosis assays were performed to evaluate the phagocytic abilities of macrophages.
# Toledo Cells (a tumor cell line, as a target) were labelled with CellTrace™ Far Red and plated into 96-well plate at a density of 0.15×10^6 cells/well for 12 hours. The Macrophages were prepared as discussed above and then labelled with CellTrace Violet. Next, the macrophages were added into the plate as an effector at an effector:target (Toledo) ratio of 1:3, giving a final density of macrophages at 0.05×10^6 cells/well. Macrophages and tumor cells were cocultured for 2-6 h at 37° C. in the presence of the indicated treatments (small molecule therapeutic agents, CD47 antibody, CD20 antibody or combinations). The incubation time depending on the phagocytosis rate, expecting phagocytosis of 5-20% cells.
# Then, cells were acquired and data were analyzed.
# Calreticulin = assay: FACS analysis of expression level of calreticulin on tumor cell surface; details: Toledo cells; for Mean Fluorescence Intensity (MFI) Calreticulin: 12 hours
# Procedure: (§1) For FACS analysis, on the day of analysis (day 1), Toledo cells were seeded into 96 well plate and cultured at a density of 0.2×10^6 cells/well. Then the cells were treated with the selected small molecule therapeutic agents for 12 hours.
# (§2) On day 2, cells were harvested, washed twice and then re-suspended in 100 uL FACS buffer subject to FACS analysis. For detection of the expression of calreticulin and CD47, cells were incubated with anti-calreticulin antibody and commercially available anti-CD47 antibody (BD Biosciences, Catalog number: 561249) in dark at 4° C. for 30 mins.
# (§3) Then, the cells were subject to FACS analysis. Data was acquired and analyzed.
# macrophages = assay: Macrophage Viability Assay (CellTiter-Glo); details: for Macrophage viability (CellTiter-Glo Luminescent Cell Viability Assay): 16 hours, three replicate lines
# Procedure: Then, the monocytes isolated by MACS were subsequently cultured in fresh complete medium supplemented with recombinant human granulocyte-macrophage colony-stimulating factor GM-CSF (50 ng/ml) and human recombinant IL-4 (35 ng/ml) to activate differentiated macrophages. After 6 days of culture (on day 7), cells were harvested, pooled together and counted for next use.
# The cells from Example 2 were plated into a 96-well flat bottom plate at a density of 0.05×10^6 cells/well. After 2 hours of incubation, the macrophages were well attached to the plate. Then selected small molecule therapeutic agents were added to the well and cocultured for 16 hours. On day 8, macrophage viability was assessed by CellTiter-Glo® Luminescent Cell Viability Assay, according to the manufacture's instruction.
# CD47 = assay: FACS analysis of expression level of CD47 on tumor cell surface; details: Toledo cells; for Mean Fluorescence Intensity (MFI) CD47: 12 hours
# Procedure: as §1, §2, §3
# [1] = Cpd 0.0016 uM, T4J = 0, R = 0.01 ug/ml
# [2] = Cpd 0.0016 uM, T4J = 0.1 ug/ml, R = 0
# [3] = Cpd 0.0016 uM, T4J = 0.1 ug/ml, R = 0.01 ug/ml
# [4] = Cpd 0.008 uM, T4J = 0, R = 0.01 ug/ml
# [5] = Cpd 0.008 uM, T4J = 0.1 ug/ml, R = 0
# [6] = Cpd 0.008 uM, T4J = 0.1 ug/ml, R = 0.01 ug/ml
# [7] = Cpd 0.04 uM, T4J = 0, R = 0.01 ug/ml
# [8] = Cpd 0.04 uM, T4J = 0.1 ug/ml, R = 0
# [9] = Cpd 0.04 uM, T4J = 0.1 ug/ml, R = 0.01 ug/ml
# [10] = Cpd 0.2 uM, T4J = 0, R = 0.01 ug/ml
# [11] = Cpd 0.2 uM, T4J = 0.1 ug/ml, R = 0
# [12] = Cpd 0.2 uM, T4J = 0.1 ug/ml, R = 0.01 ug/ml
# [13] = Cpd 1 uM, T4J = 0, R = 0.01 ug/ml
# [14] = Cpd 1 uM, T4J = 0.1 ug/ml, R = 0
# [15] = Cpd 1 uM, T4J = 0.1 ug/ml, R = 0.01 ug/ml
smiles,measurement,setting,value
Nc1cccc2c1CN(C1CCC(=O)NC1=O)C2=O (centres unmarked) [Lenalidomide],macrophage phagocytosis (untreated = 1.00),"Toledo Cells; Cpd 0.0016 uM, T4J = 0, R = 0",1.02
same,macrophage phagocytosis (untreated = 1.00),Toledo Cells; [1],1.46
same,macrophage phagocytosis (untreated = 1.00),Toledo Cells; [2],2.48
same,macrophage phagocytosis (untreated = 1.00),Toledo Cells; [3],3.10
same,macrophage phagocytosis (untreated = 1.00),"Toledo Cells; Cpd 0.008 uM, T4J = 0, R = 0",1.03
same,macrophage phagocytosis (untreated = 1.00),Toledo Cells; [4],1.47
same,macrophage phagocytosis (untreated = 1.00),Toledo Cells; [5],2.57
same,macrophage phagocytosis (untreated = 1.00),Toledo Cells; [6],3.04
same,macrophage phagocytosis (untreated = 1.00),"Toledo Cells; Cpd 0.04 uM, T4J = 0, R = 0",1.08
same,macrophage phagocytosis (untreated = 1.00),Toledo Cells; [7],1.46
same,macrophage phagocytosis (untreated = 1.00),Toledo Cells; [8],2.56
same,macrophage phagocytosis (untreated = 1.00),Toledo Cells; [9],3.06
same,macrophage phagocytosis (untreated = 1.00),"Toledo Cells; Cpd 0.2 uM, T4J = 0, R = 0",0.96
same,macrophage phagocytosis (untreated = 1.00),Toledo Cells; [10],1.51
same,macrophage phagocytosis (untreated = 1.00),Toledo Cells; [11],2.61
same,macrophage phagocytosis (untreated = 1.00),Toledo Cells; [12],3.04
same,macrophage phagocytosis (untreated = 1.00),"Toledo Cells; Cpd 1 uM, T4J = 0, R = 0",1.01
same,macrophage phagocytosis (untreated = 1.00),Toledo Cells; [13],1.47
same,macrophage phagocytosis (untreated = 1.00),Toledo Cells; [14],2.62
same,macrophage phagocytosis (untreated = 1.00),Toledo Cells; [15],3.07
same,phagocytic ability of macrophages,"Toledo Cells; triple combination: T4J, Rituximab and the small molecule",does not show the synergistic effects
same,Mean Fluorescence Intensity (MFI) Calreticulin,Calreticulin; 0.008 uM,69.3
same,Mean Fluorescence Intensity (MFI) Calreticulin,Calreticulin; 0.04 uM,70.1
same,Mean Fluorescence Intensity (MFI) Calreticulin,Calreticulin; 0.2 uM,73.4
same,Mean Fluorescence Intensity (MFI) Calreticulin,Calreticulin; 1 uM,75.6
same,Mean Fluorescence Intensity (MFI) Calreticulin,Calreticulin; 5 uM,75.2
same,Macrophage viability (CellTiter-Glo Luminescent Cell Viability Assay),macrophages; Cpd 0.002 uM,5972 and 5872 and 5776
same,Macrophage viability (CellTiter-Glo Luminescent Cell Viability Assay),macrophages; Cpd 0.008 uM,5992 and 5996 and 6180
same,Macrophage viability (CellTiter-Glo Luminescent Cell Viability Assay),macrophages; Cpd 0.04 uM,6152 and 6132 and 5892
same,Macrophage viability (CellTiter-Glo Luminescent Cell Viability Assay),macrophages; Cpd 0.2 uM,6216 and 6088 and 6456
same,Macrophage viability (CellTiter-Glo Luminescent Cell Viability Assay),macrophages; Cpd 1 uM,6016 and 6108 and 6088
same,Macrophage viability (CellTiter-Glo Luminescent Cell Viability Assay),macrophages; Cpd 5 uM,5840 and 6236 and 6108
same,Macrophage viability (CellTiter-Glo Luminescent Cell Viability Assay),macrophages; Cpd 25 uM,5432 and 5752 and 5744
same,Macrophage viability (CellTiter-Glo Luminescent Cell Viability Assay),macrophages; Cpd 50 uM,5208 and 5124 and 5644
same,toxicity to macrophages,macrophages; dose as high as 50 μM,showed toxicity
same,toxicity to macrophages,macrophages; dose lower than 10 μM,little toxic
same,Mean Fluorescence Intensity (MFI) CD47,CD47; 0.008 uM,8706
same,Mean Fluorescence Intensity (MFI) CD47,CD47; 0.04 uM,8881
same,Mean Fluorescence Intensity (MFI) CD47,CD47; 0.2 uM,8730
same,Mean Fluorescence Intensity (MFI) CD47,CD47; 1 uM,8985
same,Mean Fluorescence Intensity (MFI) CD47,CD47; 5 uM,8443
CC1(C)CCC(CN2CCN(c3ccc(C(=O)NS(=O)(=O)c4ccc(NCC5CCOCC5)c([N+](=O)[O-])c4)c(Oc4cnc5[nH]ccc5c4)c3)CC2)=C(c2ccc(Cl)cc2)C1 [Venetoclax],macrophage phagocytosis (untreated = 1.00),"Toledo Cells; Cpd 0.0016 uM, T4J = 0, R = 0",1.00
same,macrophage phagocytosis (untreated = 1.00),Toledo Cells; [1],1.45
same,macrophage phagocytosis (untreated = 1.00),Toledo Cells; [2],2.62
same,macrophage phagocytosis (untreated = 1.00),Toledo Cells; [3],3.23
same,macrophage phagocytosis (untreated = 1.00),"Toledo Cells; Cpd 0.008 uM, T4J = 0, R = 0",1.10
same,macrophage phagocytosis (untreated = 1.00),Toledo Cells; [4],1.54
same,macrophage phagocytosis (untreated = 1.00),Toledo Cells; [5],2.59
same,macrophage phagocytosis (untreated = 1.00),Toledo Cells; [6],3.30
same,macrophage phagocytosis (untreated = 1.00),"Toledo Cells; Cpd 0.04 uM, T4J = 0, R = 0",1.17
same,macrophage phagocytosis (untreated = 1.00),Toledo Cells; [7],1.82
same,macrophage phagocytosis (untreated = 1.00),Toledo Cells; [8],2.64
same,macrophage phagocytosis (untreated = 1.00),Toledo Cells; [9],3.37
same,macrophage phagocytosis (untreated = 1.00),"Toledo Cells; Cpd 0.2 uM, T4J = 0, R = 0",1.41
same,macrophage phagocytosis (untreated = 1.00),Toledo Cells; [10],1.93
same,macrophage phagocytosis (untreated = 1.00),Toledo Cells; [11],2.81
same,macrophage phagocytosis (untreated = 1.00),Toledo Cells; [12],3.64
same,macrophage phagocytosis (untreated = 1.00),"Toledo Cells; Cpd 1 uM, T4J = 0, R = 0",1.56
same,macrophage phagocytosis (untreated = 1.00),Toledo Cells; [13],2.03
same,macrophage phagocytosis (untreated = 1.00),Toledo Cells; [14],2.91
same,macrophage phagocytosis (untreated = 1.00),Toledo Cells; [15],3.65
same,Mean Fluorescence Intensity (MFI) Calreticulin,Calreticulin; 0.008 uM,117
same,Mean Fluorescence Intensity (MFI) Calreticulin,Calreticulin; 0.04 uM,258
same,Mean Fluorescence Intensity (MFI) Calreticulin,Calreticulin; 0.2 uM,471
same,Mean Fluorescence Intensity (MFI) Calreticulin,Calreticulin; 1 uM,1123
same,Mean Fluorescence Intensity (MFI) Calreticulin,Calreticulin; 5 uM,2533
same,increase of the expression level of calreticulin,Calreticulin; dose of 5 μM,~120 folds
same,Macrophage viability (CellTiter-Glo Luminescent Cell Viability Assay),macrophages; Cpd 0.002 uM,5968 and 6024 and 5856
same,Macrophage viability (CellTiter-Glo Luminescent Cell Viability Assay),macrophages; Cpd 0.008 uM,6148 and 6172 and 5912
same,Macrophage viability (CellTiter-Glo Luminescent Cell Viability Assay),macrophages; Cpd 0.04 uM,6288 and 6072 and 6264
same,Macrophage viability (CellTiter-Glo Luminescent Cell Viability Assay),macrophages; Cpd 0.2 uM,7260 and 6072 and 5756
same,Macrophage viability (CellTiter-Glo Luminescent Cell Viability Assay),macrophages; Cpd 1 uM,6052 and 6020 and 6088
same,Macrophage viability (CellTiter-Glo Luminescent Cell Viability Assay),macrophages; Cpd 5 uM,5760 and 5660 and 6120
same,Macrophage viability (CellTiter-Glo Luminescent Cell Viability Assay),macrophages; Cpd 25 uM,4696 and 4596 and 4776
same,Macrophage viability (CellTiter-Glo Luminescent Cell Viability Assay),macrophages; Cpd 50 uM,1240 and 1132 and 1108
same,toxicity to macrophages,macrophages; dose as high as 50 μM,showed toxicity
same,toxicity to macrophages,macrophages; dose lower than 10 μM,little toxic
same,Mean Fluorescence Intensity (MFI) CD47,CD47; 0.008 uM,7873
same,Mean Fluorescence Intensity (MFI) CD47,CD47; 0.04 uM,6201
same,Mean Fluorescence Intensity (MFI) CD47,CD47; 0.2 uM,5206
same,Mean Fluorescence Intensity (MFI) CD47,CD47; 1 uM,4232
same,Mean Fluorescence Intensity (MFI) CD47,CD47; 5 uM,3540
same,inhibition of CD47 expression,CD47; dose of 5 μM,~50%
